Laboratory results as given in ChEMBL document CHEMBL1153563, “Comparative in vitro activities of caspofungin and micafungin, determined using the method of the European Committee on Antimicrobial Susceptibility Testing, against yeast isolates obtained in France in 2005-2006” (2008).
Values after ≈ are worked out from the molar mass of the structure shown. *1 amine or outer side, *2 acyl side, *3 side chain or, on linkers, in order; H or OH if unused. Where a SMILES comes first, the peptide text is derived from it. Bridges are numbered along the chain shown (N, C = ends). [ ]: non-standard residue; d: D form. The star is where a group is joined. hTyr(3S-OH,4S-OH,3'-OSO3H) = N[C@H](C(=O)O)[C@H](O)[C@@H](O)c1ccc(O)c(OS(=O)(=O)O)c1; Orn(4R-OH,5R-OH) = O=C([C@H](C[C@@H](O)[C@@H](O)N[*:3])N[*:1])[*:2]; Pro(3S-OH,4S-Me) = C[C@H]1CN[C@H](C(=O)O)[C@H]1O; X1 = CCCCCOc1ccc(-c2cc(-c3ccc(C(=O)*)cc3)no2)cc1; Gln(3R-OH) = NC(=O)C[C@@H](O)[C@H](N)C(=O)O; Hyp = O=C(O)[C@@H]1C[C@@H](O)CN1

Experiments:
Format in all cases: functional
[1] = system: Candida albicans; assay: Antifungal activity against Candida albicans after 24 to 48 hrs by AFST-EUCAST based broth microdilution method
[2] = system: Nakaseomyces glabratus; assay: Antifungal activity against Candida glabrata after 24 to 48 hrs by AFST-EUCAST based broth microdilution method
[3] = system: Candida parapsilosis; assay: Antifungal activity against Candida parapsilosis ATCC 22019 after 24 to 48 hrs by AFST-EUCAST based broth microdilution method; conditions: Lodderomyces parapsilosis
[4] = system: Candida tropicalis; assay: Antifungal activity against Candida tropicalis after 24 to 48 hrs by AFST-EUCAST based broth microdilution method
[5] = system: Meyerozyma guilliermondii; assay: Antifungal activity against Candida guilliermondii after 24 to 48 hrs by AFST-EUCAST based broth microdilution method
[6] = system: Pichia kudriavzevii; assay: Antifungal activity against Candida krusei ATCC 6258 after 24 to 48 hrs by AFST-EUCAST based broth microdilution method
[7] = system: Kluyveromyces marxianus; assay: Antifungal activity against Candida kefyr after 24 to 48 hrs by AFST-EUCAST based broth microdilution method
[8] = system: [Candida] haemuloni; assay: Antifungal activity against Candida haemulonii after 24 to 48 hrs by AFST-EUCAST based broth microdilution method; conditions: Candidozyma haemuli
[9] = system: Clavispora lusitaniae; assay: Antifungal activity against Candida lusitaniae after 24 to 48 hrs by AFST-EUCAST based broth microdilution method
[10] = system: Meyerozyma caribbica; assay: Antifungal activity against Candida fermentati after 24 to 48 hrs by AFST-EUCAST based broth microdilution method
[11] = system: Candida dubliniensis; assay: Antifungal activity against Candida dubliniensis after 24 to 48 hrs by AFST-EUCAST based broth microdilution method
[12] = system: Yarrowia lipolytica; assay: Antifungal activity against Candida lipolytica after 24 to 48 hrs by AFST-EUCAST based broth microdilution method
[13] = system: Debaryomyces hansenii; assay: Antifungal activity against Candida famata after 24 to 48 hrs by AFST-EUCAST based broth microdilution method
[14] = system: Wickerhamomyces anomalus; assay: Antifungal activity against Candida pelliculosa after 24 to 48 hrs by AFST-EUCAST based broth microdilution method; conditions: Hansenula anomala
[15] = system: Diutina rugosa; assay: Antifungal activity against Candida rugosa after 24 to 48 hrs by AFST-EUCAST based broth microdilution method
[16] = system: Cyberlindnera jadinii; assay: Antifungal activity against Candida utilis after 24 to 48 hrs by AFST-EUCAST based broth microdilution method; conditions: Williopsis jadinii
[17] = system: [Candida] inconspicua; assay: Antifungal activity against Candida inconspicua after 24 to 48 hrs by AFST-EUCAST based broth microdilution method; conditions: Pichia inconspicua
[18] = system: [Candida] intermedia; assay: Antifungal activity against Candida intermedia after 24 to 48 hrs by AFST-EUCAST based broth microdilution method; conditions: Sungouiella intermedia
[19] = system: Candida africana; assay: Antifungal activity against Candida africana after 24 to 48 hrs by AFST-EUCAST based broth microdilution method
[20] = system: Pichia fermentans; assay: Antifungal activity against Candida lambica after 24 to 48 hrs by AFST-EUCAST based broth microdilution method
[21] = system: Nakaseomyces nivariensis; assay: Antifungal activity against Candida nivariensis after 24 to 48 hrs by AFST-EUCAST based broth microdilution method
[22] = system: Pichia norvegensis; assay: Antifungal activity against Candida norvegensis after 24 to 48 hrs by AFST-EUCAST based broth microdilution method
[23] = system: Kluyveromyces lactis; assay: Antifungal activity against Candida sphaerica after 24 to 48 hrs by AFST-EUCAST based broth microdilution method
[24] = system: Saccharomyces cerevisiae; assay: Antifungal activity against Saccharomyces cerevisiae after 24 to 48 hrs by AFST-EUCAST based broth microdilution method
[25] = system: Geotrichum; assay: Antifungal activity against Geotrichum after 24 to 48 hrs by AFST-EUCAST based broth microdilution method
[26] = system: Cyberlindnera saturnus; assay: Antifungal activity against Williopsis saturnus after 24 to 48 hrs by AFST-EUCAST based broth microdilution method
[27] = system: Kodamaea ohmeri; assay: Antifungal activity against Kodamaea ohmeri after 24 to 48 hrs by AFST-EUCAST based broth microdilution method
[28] = system: Zygosaccharomyces; assay: Antifungal activity against Zygosaccharomyces after 24 to 48 hrs by AFST-EUCAST based broth microdilution method
[29] = system: Cryptococcus neoformans; assay: Antifungal activity against […] after 24 to 48 hrs by AFST-EUCAST based broth microdilution method
[30] = system: Trichosporon; assay: Antifungal activity against Trichosporon after 24 to 48 hrs by AFST-EUCAST based broth microdilution method
[31] = system: Rhodotorula mucilaginosa; assay: Antifungal activity against Rhodotorula mucilaginosa after 24 to 48 hrs by AFST-EUCAST based broth microdilution method

Work on `CCCCCOc1ccc(-c2cc(-c3ccc(C(=O)N[C@H]4C[C@@H](O)[C@@H](O)NC(=O)[C@@H]5[C@@H](O)[C@@H](C)CN5C(=O)[C@H]([C@H](O)CC(N)=O)NC(=O)[C@H]([C@H](O)[C@@H](O)c5ccc(O)c(OS(=O)(=O)O)c5)NC(=O)[C@@H]5C[C@@H](O)CN5C(=O)[C@H]([C@@H](C)O)NC4=O)cc3)no2)cc1` [MICAFUNGIN] (X1-[Orn(4R-OH,5R-OH)]T[Hyp][hTyr(3S-OH,4S-OH,3'-OSO3H)][Gln(3R-OH)][Pro(3S-OH,4S-Me)]; lactam 1-C) yielded an MIC50 [1] of 0.03 µg/mL (≈ 0.0236 µM), an MIC90 [1] of 0.06 µg/mL (≈ 0.0472 µM) and an MIC50 [2] of 0.03 µg/mL (≈ 0.0236 µM). For the same compound, the MIC90 [2] was 0.06 µg/mL (≈ 0.0472 µM), the MIC50 [3] was 2 µg/mL (≈ 1.57 µM) and the MIC90 [3] was 2 µg/mL (≈ 1.57 µM). For the same compound, the MIC50 [4] was 0.06 µg/mL (≈ 0.0472 µM), the MIC90 [4] was 0.125 µg/mL (≈ 0.0984 µM) and the MIC50 [5] was 1 µg/mL (≈ 0.787 µM). The MIC90 [5] was 2 µg/mL (≈ 1.57 µM), the MIC50 [6] was 0.25 µg/mL (≈ 0.197 µM) and the MIC90 [6] was 0.25 µg/mL (≈ 0.197 µM). It also gave an MIC50 [7] of 0.125 µg/mL (≈ 0.0984 µM), an MIC90 [7] of 0.25 µg/mL (≈ 0.197 µM) and an MIC50 [8] of 0.25 µg/mL (≈ 0.197 µM). The MIC90 [8] was 0.25 µg/mL (≈ 0.197 µM), the MIC50 [9] was 0.25 µg/mL (≈ 0.197 µM) and the MIC90 [9] was 0.5 µg/mL (≈ 0.394 µM). For the same compound, the MIC50 [10] was 1 µg/mL (≈ 0.787 µM), the MIC90 [10] was 1 µg/mL (≈ 0.787 µM) and the MIC50 [11] was 0.06 µg/mL (≈ 0.0472 µM). It also gave an MIC90 [11] of 1 µg/mL (≈ 0.787 µM), an MIC50 [12] of 0.06 µg/mL (≈ 0.0472 µM) and an MIC90 [12] of 1 µg/mL (≈ 0.787 µM). It also gave an MIC50 [13] of 0.06 µg/mL (≈ 0.0472 µM), an MIC90 [13] of 1 µg/mL (≈ 0.787 µM) and an MIC50 [14] of 0.06 µg/mL (≈ 0.0472 µM). For the same compound, the MIC90 [14] was 1 µg/mL (≈ 0.787 µM), the MIC50 [15] was 0.06 µg/mL (≈ 0.0472 µM) and the MIC90 [15] was 1 µg/mL (≈ 0.787 µM). For the same compound, the MIC50 [16] was 0.06 µg/mL (≈ 0.0472 µM), the MIC90 [16] was 1 µg/mL (≈ 0.787 µM) and the MIC50 [17] was 0.06 µg/mL (≈ 0.0472 µM). For the same compound, the MIC90 [17] was 1 µg/mL (≈ 0.787 µM), the MIC50 [18] was 0.06 µg/mL (≈ 0.0472 µM) and the MIC90 [18] was 1 µg/mL (≈ 0.787 µM). The MIC50 [19] was 0.06 µg/mL (≈ 0.0472 µM), the MIC90 [19] was 1 µg/mL (≈ 0.787 µM) and the MIC50 [20] was 0.06 µg/mL (≈ 0.0472 µM). For the same compound, the MIC90 [20] was 1 µg/mL (≈ 0.787 µM), the MIC50 [21] was 0.06 µg/mL (≈ 0.0472 µM) and the MIC90 [21] was 1 µg/mL (≈ 0.787 µM). The MIC50 [22] was 0.06 µg/mL (≈ 0.0472 µM), the MIC90 [22] was 1 µg/mL (≈ 0.787 µM) and the MIC50 [23] was 0.06 µg/mL (≈ 0.0472 µM). The MIC90 [23] was 1 µg/mL (≈ 0.787 µM), the MIC50 [24] was 0.25 µg/mL (≈ 0.197 µM) and the MIC90 [24] was 16 µg/mL (≈ 12.6 µM). The MIC50 [25] was 0.25 µg/mL (≈ 0.197 µM), the MIC90 [25] was 16 µg/mL (≈ 12.6 µM) and the MIC50 [26] was 0.25 µg/mL (≈ 0.197 µM). It also gave an MIC90 [26] of 16 µg/mL (≈ 12.6 µM), an MIC50 [27] of 0.25 µg/mL (≈ 0.197 µM) and an MIC90 [27] of 16 µg/mL (≈ 12.6 µM). The MIC50 [28] was 0.25 µg/mL (≈ 0.197 µM), the MIC90 [28] was 16 µg/mL (≈ 12.6 µM) and the MIC50 [29] was 16 µg/mL (≈ 12.6 µM). It also gave an MIC90 [29] of 16 µg/mL (≈ 12.6 µM), an MIC50 [30] of 16 µg/mL (≈ 12.6 µM) and an MIC50 [31] of 16 µg/mL (≈ 12.6 µM).
